Assay results taken from PubChem BioAssay (NCI).
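How tested: cells in 96-well plates exposed to compound for 48 hours at five concentrations. TGI denotes the concentration required for complete inhibition of growth.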

What was measured:
Assay in all cases: NCI-60 cell line screen, 48 h
[1] = system: NCI-H522 lung
[2] = system: SNB-75 CNS
[3] = system: HOP-62 NSCLC
[4] = system: K-562 leukemia
[5] = system: OVCAR-4 ovarian

SMILES	TGI [1]	TGI [2]	TGI [3]	TGI [4]	TGI [5]
CC(C(=O)NCNC(=O)c1ccccc1)C(=O)NCc1ccccc1 (centres undefined)	> 100 µM	> 100 µM			
COc1nc2c(c(=O)[nH]1)N=C(c1ccc([N+](=O)[O-])cc1)CC(c1ccccc1)N2 (centres undefined)	> 100 µM	> 100 µM	> 100 µM	> 100 µM	> 100 µM
NS(=O)(=O)c1ccc(NCc2cccc3c(=O)c4ccc(Cl)cc4oc23)cc1	99.7 µM	> 96.6 µM	> 100 µM	> 100 µM	> 100 µM
O=[N+]([O-])c1ccc(-c2ccc([C@H]3CC(c4cc(F)c(Cl)cc4Cl)=NN3)o2)cc1	> 100 µM	71.4 µM	> 100 µM	> 100 µM	> 100 µM
CCOC(=O)c1cn2c(n1)sc1cc([N+](=O)[O-])ccc12	> 100 µM	> 100 µM	> 100 µM	> 100 µM	> 100 µM
C[N+](C)(C)CC(=O)N/N=C\c1c(O)ccc2ccccc12	53.6 µM	71.1 µM	> 100 µM	> 100 µM	> 100 µM
CC12CCC(C(=Nc3ccc([N+](=O)[O-])cc3)C1=O)C2(C)C (centres undefined)			81.9 µM	55.2 µM	69.8 µM
C/C(=C\COP(=O)(O)CP(=O)(O)O)CC/C=C(\C)CNc1ccccc1	> 100 µM	> 100 µM	> 100 µM	> 100 µM	
O=C1OCC2=C1C(c1ccc(Cl)cc1)c1cc3c(cc1O2)OCO3 (centres undefined)		> 100 µM	> 35.4 µM	> 100 µM	> 100 µM
CC1=C(C(N)=O)C(c2ccncc2)C(C#N)C(=O)N1 (centres undefined)		> 100 µM	> 100 µM	> 100 µM	> 100 µM
CN1CN(c2ccccc2)C2(CCN(CCCN(C)c3ccc(F)cc3)CC2)C1=O	27.4 µM	40 µM	32.1 µM	30.1 µM	
O=C1/C(=C/c2ccc(Cl)cc2)NC(=S)N1CN1CCCCC1	49.3 µM	> 100 µM	> 100 µM	> 100 µM	
COc1ccc2c(c1)SC1=Nc3sc4cc(OC)ccc4[n+]3CN12	8.5 µM		> 100 µM	> 100 µM	
COC(=O)C#CC1(O)C=CC(=O)C=C1	0.552 µM	18.1 µM	15.7 µM		17 µM
CCOC(=O)c1c2ccccc2n2c(=O)n(-c3ccccc3)nnc12		89.5 µM	> 100 µM	47.3 µM	> 100 µM
CC(=O)OCC1OC(Sc2nc(-c3ccccc3)c(C#N)c(=O)n2C2OC(COC(C)=O)C(OC(C)=O)C(OC(C)=O)C2OC(C)=O)C(OC(C)=O)C(OC(C)=O)C1OC(C)=O (centres undefined)	> 100 µM	> 100 µM	> 100 µM	> 100 µM	
COc1ccc(C2OC2C(=O)C23CC4CC(CC(C4)C2)C3)cc1 (centres undefined)	> 100 µM		> 100 µM	> 100 µM	> 100 µM
Nc1ccc(Oc2ccc(C3(c4ccc(Oc5ccc(N)c(O)c5)cc4)C4CC5CC(C4)CC3C5)cc2)cc1O	3.06 µM		4.73 µM	5.56 µM	24.9 µM
O=C1C/C(=C\c2ccccc2)C(=O)c2ccccc2N1	51.9 µM		56.6 µM		49.1 µM
COc1cc(N(CCC#N)CCC#N)ccc1/C(N=Nc1cccc([N+](=O)[O-])c1)=N\NC(=O)c1ccc(C)cc1	> 100 µM		> 100 µM	> 100 µM	> 100 µM
CSc1ccc(/C=C2\N=C(c3ccccc3)N(NC(=O)c3c(Cl)c(Cl)c(Cl)c(Cl)c3-c3nc4ccccc4[nH]3)C2=O)cc1	> 100 µM	46.6 µM	> 100 µM	66.4 µM	
CCCCCCCC(=O)N1C2CC3CCC2(CS1(=O)=O)C3(C)C (centres undefined)	48.5 µM	> 100 µM	44.3 µM		> 100 µM
CC(=O)OCC1OC(NC(=S)Nn2c(-c3ccccc3)nc3ccccc3c2=O)C(OC(C)=O)C(OC(C)=O)C1OC(C)=O (centres undefined)	> 100 µM	> 100 µM	> 100 µM	> 100 µM	
COC(=O)c1c(O)ccc2c1c1c(n2CCc2ccccc2)C(=O)c2ccccc2C1		54.1 µM	52.3 µM	> 100 µM	41.4 µM
CC(=O)OC(C(=O)NNC(=O)OC(C)(C)C)c1ccccc1 (centres undefined)	> 100 µM	> 100 µM	> 100 µM	> 100 µM	
N#CC(C#N)=CNC(=S)Nc1ccc(S(=O)(=O)Nc2nccs2)cc1		> 100 µM	> 100 µM		> 100 µM
O=C(O)c1ccc2nc(-c3ccccn3)c(-c3ccccn3)nc2c1		> 100 µM	> 100 µM	> 100 µM	> 100 µM
CC(=O)OCCn1c(Cc2ccc(Cl)cc2)nn(C(C)=O)c1=O	> 100 µM			> 100 µM	> 100 µM
COC(=O)[C@]1(CCC(C)=O)C(=O)C=CN([C@H](C)c2ccccc2)[C@@H]1Cc1ccc(OC)c(OCc2ccccc2)c1I	41.6 µM		51.7 µM	> 100 µM	> 100 µM
